Patent US20240174663A1, “PYRIMIDINE OR PYRIDINE DERIVATIVES USEFUL AS HCN2 MODULATORS” (King's College London, priority 2021, published 2024)
Where a name gives a salt, the structure may show the parent alone.

What was measured:
[1] = target: T1, HCN4 (Homo sapiens, UniProt Q9Y3Q4); assay: HCN4 assay using PatchXpress 7000A (PX protocol, Example 25); type: cell-based; conditions: room temperature
T1 sequence (Q9Y3Q4 1-1203): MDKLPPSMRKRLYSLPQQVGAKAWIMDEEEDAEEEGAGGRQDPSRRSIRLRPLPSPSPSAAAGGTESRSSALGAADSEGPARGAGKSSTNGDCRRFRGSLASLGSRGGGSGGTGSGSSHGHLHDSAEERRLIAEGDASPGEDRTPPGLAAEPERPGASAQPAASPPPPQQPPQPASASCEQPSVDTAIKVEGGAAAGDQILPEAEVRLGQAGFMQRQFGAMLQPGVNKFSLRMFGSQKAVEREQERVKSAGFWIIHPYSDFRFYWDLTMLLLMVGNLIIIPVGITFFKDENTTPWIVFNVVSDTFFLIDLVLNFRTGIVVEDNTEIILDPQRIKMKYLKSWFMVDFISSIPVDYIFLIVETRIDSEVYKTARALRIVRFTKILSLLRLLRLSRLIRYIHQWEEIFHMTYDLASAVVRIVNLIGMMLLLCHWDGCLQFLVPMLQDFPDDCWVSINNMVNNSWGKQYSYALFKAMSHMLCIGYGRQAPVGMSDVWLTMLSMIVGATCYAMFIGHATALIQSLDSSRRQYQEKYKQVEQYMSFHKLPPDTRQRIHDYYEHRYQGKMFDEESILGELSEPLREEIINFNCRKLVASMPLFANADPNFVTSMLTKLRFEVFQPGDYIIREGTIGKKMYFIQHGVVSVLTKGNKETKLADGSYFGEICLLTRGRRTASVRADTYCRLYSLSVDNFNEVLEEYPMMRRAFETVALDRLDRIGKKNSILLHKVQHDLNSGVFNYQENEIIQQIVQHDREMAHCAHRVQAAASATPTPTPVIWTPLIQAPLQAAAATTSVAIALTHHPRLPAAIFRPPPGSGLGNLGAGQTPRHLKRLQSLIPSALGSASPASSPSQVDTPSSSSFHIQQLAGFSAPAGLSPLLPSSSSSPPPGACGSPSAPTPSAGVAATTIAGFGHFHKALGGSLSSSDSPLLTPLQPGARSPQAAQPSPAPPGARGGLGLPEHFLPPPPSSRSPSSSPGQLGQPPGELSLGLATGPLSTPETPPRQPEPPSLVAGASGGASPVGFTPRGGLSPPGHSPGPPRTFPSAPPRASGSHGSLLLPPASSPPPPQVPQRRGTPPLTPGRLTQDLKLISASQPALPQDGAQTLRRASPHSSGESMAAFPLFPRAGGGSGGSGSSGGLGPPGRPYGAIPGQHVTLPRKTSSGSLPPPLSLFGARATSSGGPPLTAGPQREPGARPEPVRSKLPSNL
Description: Example 25: Assay for HCN1 HCN2 and HCN4 Using PatchXpress 7000A
Solutions for recording HCN currents were:
The peak inward current measured at the end of the pulse to −110 mV (HCN1 and HCN2) or −130 mV (HCN4) was measured and any leak current subtracted to calculate the HCN current. The HCN current amplitude was measured after each control or compound addition and normalized to the control amplitude (Control A).
All experiments were performed at room temperature (approximately 22° C.).
Each test compound concentration was applied to the cell for seven (7) minutes, at which point the next cumulative concentration was applied.

[2] = test system: WT Black6 strain mice; assay: Mouse neuropathic pain model (partial sciatic nerve ligation), von Frey filament; type: in vivo
Description: The model used was analogous to the model described in Seltzer Z, Dubner […] novel behavioural model of neuropathic pain disorders produced in rats by partial sciatic nerve injury, Pain 43: 205-218). […] Sci Transl Med 9: eaam6072. […] The mechanical pain threshold was measured by manual von Frey filament applied to the hind paw on the operated side, using the “up-down” method.

[3] = test system: mouse models of neuropathic pain; conditions: nerve injury, cancer chemotherapy and diabetic neuropathy models; cited from earlier work
[4] = test system: mice (hearing thresholds); type: in vivo; conditions: adult mice, tone pulses 3 kHz to 42 kHz; 20 mg/kg ip
[5] = Evaluation of CNS penetration: ivabradine in plasma, brain and auditory nerve; type: in vivo; conditions: guinea pig, brain (somatosensory cortex) / plasma, other: injection; 30 min after injection; read-out: amount detected in brain, % of plasma level
From the text: Ratios of total concentrations in preliminary experiments for plasma:brain:auditory nerve were 1:0.12:0.57 (n=2). The small amount (12% of plasma level) detected in brain is largely accounted for by the presence of ivabradine within the vascular supply of the brain. […] Pain 155, 1708-1719, (2014).

[6] = test system: mouse model of diabetic neuropathy; conditions: in vivo; cited from earlier work
[7] = test system: guinea pigs with noise-exposure induced tinnitus; assay: Noise-exposure tinnitus model, GPIAS test; type: in vivo, guinea pig
From the text: (§1) Tinnitus in guinea pigs was monitored using the gap induced inhibition of the acoustic startle (GPIAS) test (see FIG. 4). GPIAS is reduced when tinnitus was present; see Berger, J. I. et al. Effects of the cannabinoid CB1 agonist ACEA on salicylate ototoxicity, hyperacusis and tinnitus in guinea pigs. Hearing research, (2017), and Coomber, B. et al. Neural changes accompanying tinnitus following unilateral acoustic trauma in the guinea pig. Eur J Neurosci 40, 2427-2441, (2014).
The noise-exposure model is more clinically relevant than the salicylate model, as it parallels a common cause of tinnitus in humans. A second important point is that it is long-term, while tinnitus induced by salicylate is rapidly reversed following salicylate exposure.
GPIAS returns following drug wash-out (see bar D in FIG. 6).

[8] = test system: guinea pigs with salicylate-induced tinnitus; assay: Short-term (salicylate) tinnitus model, gap induced inhibition of the acoustic startle (GPIAS) test; type: in vivo, guinea pig; conditions: 5 mg/kg s.c.; salicylate 350 mg/kg i.p., 2 h
From the text: as §1
In FIG. 4, sound stimulus (above) and corresponding pinna reflex (below) are shown in freely moving guinea pigs. Stimuli with no gap and gap are presented in a randomised order. Traces contaminated by movement (the upper trace in “no gap”) were removed before analysis.
Tinnitus was induced within 1-2 hours in humans by high doses of salicylate. A similar short-term tinnitus model was implemented in guinea pigs by i.p. injection of salicylate. In all animals, salicylate caused behavioural inhibition of GPIAS (see bar 2 in FIG. 5).
Salicylate (350 mg/kg, i.p.) impairs behavioural gap detection 2 h after salicylate administration (see bar 2 in of FIG. 5). Gap detection was restored by blocking HCN channels with ivabradine (5 mg/kg, s.c.).

Compound | IC50 [1] [µM] | mechanical analgesic effect (mechanical pain threshold, von Frey) ([2]; 1 mg/kg i.p., day 5 after partial sciatic nerve ligation, operated hind paw) | hyperalgesia in contralateral (unoperated) hind paw ([2]; i.p., mice after partial sciatic nerve ligation) | analgesia in mouse models of neuropathic pain [3] | ABR threshold or latency versus untreated [4] | Kp at 30 min [5] | analgesia in mouse model of diabetic neuropathy [6] | reduced GPIAS following noise exposure ([7]; 5 mg/kg s.c., unilateral noise exposure 110 dB, 1 h, 8 weeks prior) | effect on GPIAS in noise-exposed guinea pigs showing no behavioural evidence of tinnitus ([7]; control experiments, n=3) | behavioural gap detection (GPIAS) after salicylate [8]
Cc1ccc(C#N)nc1C[C@H](N)c1ncccc1-c1noc2ccccc12 [Example 4, (S)-6-{2-Amino-2-[3-(benzo[d]isoxazol-3-yl)pyridine-2-yl]ethyl}-5-methylpyridin-2-carbonitrile hydrochloride] | 5.2 | full analgesia | No hyperalgesia observed |  |  |  |  |  |  | 
COc1cc2c(cc1OC)CC(=O)N(CCCN(C)C[C@H]1Cc3cc(OC)c(OC)cc31)CC2 [ivabradine] |  |  |  | effective analgesic | no significant difference in ABR threshold or latency | 0.12 | complete analgesia | rapidly and completely reversed | without effect | restored
